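Values below derive from 48-hour exposures of cells grown in 96-well plates, with endpoints linearly interpolated between the two concentrations bracketing the appropriate inhibition level. TGI is the concentration that stops growth completely.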

The record followed here is PubChem BioAssay (NCI).

Test in all cases: NCI tumour cell line growth inhibition, 48 h
Assay [1] deals with PC-3 prostate.
For assay [2], the system named is NCI/ADR-RES ovarian.
The subject of assay [3] is TK-10 renal.
In assay [4] the test system is OVCAR-5 ovarian.
Assay [5] concerns HL-60(TB) leukemia.
In assay [6] the test system is OVCAR-4 ovarian.
Assay [7] relates to CAKI-1 renal.
For assay [8], the system named is KM12 colon.
In assay [9] the test system is SW-620 colon.
For assay [10], the system named is LOX IMVI melanoma.
Assay [11] relates to HCT-116 colon.
Assay [12] concerns NCI-H522 lung.
Assay [13] relates to 786-0 renal.
Assay [14] has as its system NCI-H460 lung.
Assay [15] deals with K-562 leukemia.
For assay [16], the system named is UACC-257 melanoma.
Assay [17] deals with T-47D breast.
Assay [18] relates to SK-OV-3 ovarian.
Assay [19] relates to HOP-92 NSCLC.
The test system of assay [20] is RXF 393 renal.

As to `Cc1cccc(-c2cccc(COCc3cccc(-c4cccc(CO)n4)n3)n2)n1`, the TGI in [1], in assay [2], in assay [3], in assay [4], in assay [5] and in assay [6] was greater than 50 µM in each case. The TGI in assay [7], in assay [8], in assay [9], in [10], in [11] and in assay [12] was greater than 50 µM throughout. Also, the TGI in [13], in assay [14], in [15], in assay [16], in assay [17] and in assay [18] was greater than 50 µM throughout. The molecule also yielded a TGI in assay [19] greater than 50 µM.

Regarding `O=C(CC(C(=O)c1cccs1)c1ccsc1)c1ccc(Cl)cc1` (centres undefined), the TGI in [1], in assay [2], in [3], in assay [4], in assay [5] and in assay [6] was greater than 100 µM throughout. Besides, the TGI in assay [7], in assay [8], in assay [9], in assay [10], in assay [11] and in [13] was greater than 100 µM in each case. Further, the TGI in assay [14], in assay [15], in assay [16], in [17] and in assay [18] was greater than 100 µM each time.

`COc1ccc2c(c1)OCC1=C2Oc2ccccc2C1`: the TGI in assay [1] is greater than 100 µM; in [2], greater than 100 µM; in assay [3] it was greater than 100 µM; in [4], 88.8 µM; in assay [5] it was greater than 100 µM; in [6], greater than 100 µM. Besides, the TGI in assay [7] was greater than 100 µM; in assay [8], greater than 100 µM; in assay [9] it was greater than 100 µM; in assay [10], 55.9 µM; in assay [11] it was greater than 100 µM; in [12] it was 70.2 µM. Also, the TGI is greater than 100 µM in assay [13]; greater than 100 µM in assay [15]; 87.6 µM in assay [16]; greater than 100 µM in [17]; greater than 100 µM in [18].

Consider `CC(=O)Oc1c(C)cc2c(c1C)C(C)(C)CN2C(=O)C(C)(C)C`, for which the TGI in assay [1], in assay [20], in [2], in assay [3], in assay [4] and in [5] was greater than 100 µM throughout. Besides, the TGI in [6], in assay [8], in [9], in [10], in [11] and in [12] was greater than 100 µM in each case. Also, the TGI in [13] was greater than 100 µM; in assay [14], greater than 100 µM; in assay [15] it was greater than 100 µM; in assay [16] it was greater than 100 µM; in [17], 96.2 µM; in assay [18], greater than 100 µM. The molecule also registered a TGI in [19] of 74.4 µM.

Consider `C=C1CC(COc2ccc3c(C)c(Cl)c(=O)oc3c2)(c2ccccc2)OC1=O` (centres undefined), for which the TGI in [1] amounted to 5.49 µM; in assay [2], 11.4 µM; in assay [3], 3.18 µM; in assay [4] it was 25.9 µM; in [5] it was 1.42 µM; in assay [6], 3.67 µM. In addition, the TGI in assay [7] amounted to 3.12 µM; in assay [8], 6.69 µM; in [9] it was 2.62 µM; in [10], 2.82 µM; in assay [11] it was 2.42 µM; in [12], 3.93 µM. In addition, the TGI turned out to be 2.95 µM in [13]; 23.5 µM in assay [14]; 4.01 µM in assay [16]; 4.15 µM in assay [17]; 16.2 µM in assay [18]; 3.01 µM in [19].

For the molecule `Nc1cc(N2CCOCC2)nc(=O)n1-c1ccccc1`, the TGI in assay [1], in assay [2], in assay [4], in assay [5], in assay [7] and in assay [8] was greater than 100 µM in each case. The TGI in assay [9], in assay [10], in [11], in assay [13], in [14] and in [15] was greater than 100 µM each time. In addition, the TGI in [16], in assay [17], in assay [18] and in [19] was greater than 100 µM in each case.

For the molecule `CCOc1cc(/C=N\O)cc(/C=N/O)c1O`, the TGI in assay [1] is greater than 100 µM; in assay [20], 30.5 µM; in assay [2], greater than 100 µM; in assay [3] it was greater than 100 µM; in [4], greater than 100 µM; in assay [5], greater than 100 µM. For the same molecule, the TGI in assay [6] was greater than 100 µM; in [7] it was 61.1 µM; in [8], greater than 100 µM; in [9], greater than 100 µM; in assay [10], 71.9 µM; in [11], greater than 100 µM. Further, the TGI in assay [13] was greater than 100 µM; in [14], greater than 100 µM; in [15], greater than 100 µM; in assay [16] it was greater than 100 µM; in assay [17], 93.8 µM; in assay [18] it was greater than 100 µM. Besides, the TGI in assay [19] was determined as 60.4 µM.

Consider `Cc1ccc2c(=O)cc(-c3cc4ccccc4s3)[nH]c2n1`, for which the TGI in assay [1] was greater than 100 µM; in assay [20], 97.2 µM; in assay [2], greater than 100 µM; in assay [3] it was greater than 100 µM; in assay [4] it was greater than 100 µM; in [5], greater than 100 µM. Moreover, the TGI in assay [6], in assay [7], in assay [8], in assay [9], in [10] and in assay [11] was greater than 100 µM each time. Also, the TGI is greater than 100 µM in assay [12]; greater than 100 µM in assay [13]; greater than 100 µM in assay [14]; greater than 100 µM in [15]; greater than 100 µM in assay [16]; 48 µM in [17]. This molecule registered a TGI in [18] greater than 100 µM.
